Where “and” joins values, the source holds several entries; their conditions need not be identical. Equal values may be shown once.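 1) Cells in 96-well plates. 2) Compound, 48 h, 5 concentrations. 3) Linear interpolation between surrounding doses. 4) Unreached endpoint = highest concentration. GI50 = concentration required for 50% inhibition of growth. TGI denotes the concentration required for complete inhibition of growth.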

The subject of the first assay is KM12 colon. The assay can be described thus: NCI-60 cell line screen, 48 h.
With `CCOC1Oc2ccccc2C(=O)/C1=C/Nc1ccc(C(C)=O)cc1` (stereo unspecified), the GI50 was 19.1 µM and the TGI was found to be 50.2 µM.
On to `COC1/C=C/OC2(C)Oc3c(C)c(O)c4c(O)c(c(/C=N/Nc5ccc([N+](=O)[O-])cc5[N+](=O)[O-])c(O)c4c3C2=O)NC(=O)C(C)=C/C=C/C(C)C(O)C(C)C(O)C(C)C(OC(C)=O)C1C` (stereo unspecified), for which the GI50 was 1.71 µM and the TGI turned out to be 6.68 µM.
In the case of `Cc1cc(NS(=O)(=O)c2ccc(Nc3c4ccccc4nc4c(C(=O)N5CCN(CCOS(C)(=O)=O)CC5)cccc34)cc2)no1`, the TGI was above 100 µM.
On to `C=CCO[C@H]1CO[C@H]2[C@@H]1OC[C@@H]2Oc1ccc(Nc2ccnc(Nc3ccc(O[C@H]4CO[C@H]5[C@@H]4OC[C@@H]5OCC=C)c(Cl)c3)n2)cc1Cl`, for which the GI50 was 1.65 µM and the TGI amounted to 3.08 µM.
`O=C(O)CCC(NC(=O)c1ccc(Nc2nc3ccccc3nc2-c2cccs2)cc1)C(=O)O` (stereo unspecified) showed a TGI above 100 µM.
In the case of `COc1ccc2c(c1)sc1nc(-c3ccccc3)c(-c3cccc4ccccc34)n12`, the GI50 was 0.429 µM and the TGI is above 34.7 µM.
On to `C[N+](C)(C)CC(=O)N/N=C(/CC(=O)CC(C1=C(O)c2ccccc2OC1)c1ccccc1)C(=O)Nc1cccc(Cl)c1` (stereo unspecified), for which the TGI was above 100 µM.
Same read-out and setting: in the case of `CCN(CC)N=Nc1c(C(N)=O)n[nH]c1C` it was above 100 µM; in that of `COc1cc2ccnc([C@@H](OC(=O)c3ccccc3)c3ccc(OC)c(OC)c3OC)c2cc1OC`, above 100 µM.
Regarding `Cc1ccc(NC(=O)Nc2ccc(-c3cccnc3)cc2N2CCC(CO)CC2)cc1`, the GI50 was 1.25 µM and the TGI was above 100 µM.
`O=C(O)CCNCCCNCCC(=O)O` returned a TGI above 100 µM.
In the case of `CC(=O)[CH-]C(=O)c1ccccc1.CC(=O)[CH-]C(=O)c1ccccc1.CN(C)c1ccc([O-])cc1.CN(C)c1ccc([O-])cc1.Cl.[Ti+4]`, the GI50 was 13.2 µM and the TGI was 23.8 µM.
The compound `NC1=NCCC1(c1ccccc1)c1ccccn1` (stereo unspecified) came in with a TGI above 100 µM.
Same read-out and setting: in the case of `CCCCCCCCCCCC(=O)OCCOCCOCCOCCOCCOCc1ccccc1` it was above 100 µM.
With `CCCCCCCCCCCCCC(=O)OC(/C=C/C(C)C)C(O)C(O)C(OC)C(=O)NC1CCCCN(C)C1=O` (stereo unspecified), the TGI is 7.49 µM and > 49 µM.
Still for that read-out and setting: in the case of `CCOC(=O)CCC1(C(=O)OCC)CCCCC1=O` (stereo unspecified) it was above 100 µM; in that of `CCCC1C(=O)CCc2c(OC)ccc(OC)c21` (stereo unspecified), above 100 µM; in that of `NC(=O)NO.O.O.O.O.O.O.O.O.O.O.O.[Ge].[Ge].[Ge].[Ge].[Ge].[O]=[Ge].[O]=[Ge].[O]=[Ge].[O]=[Ge].[O]=[Ge][OH]`, above 100 µM.
`O=C(Nc1nc2ccc([N+](=O)[O-])cc2s1)C(=O)C(C1OC(=O)c2ccccc21)[N+](=O)[O-]` (stereo unspecified) gave a TGI above 100 µM.
`COc1cc2cc(OC)c3cc4c(cc3c2c(OC)c1OC)OCO4` displayed a TGI above 51.2 µM.
Regarding `COc1cc2c(cc1OCCCCN1CCN(CC(=O)Nc3ccc(Cl)cc3C(=O)c3ccccc3Cl)CC1)N=CC1CCCN1C2=O` (stereo unspecified), the GI50 was 0.215 µM and the TGI is 0.497 µM.
Take `C[C@@H](Oc1cc(-n2cnc3ccc(CN4CCN(C)CC4)cc32)sc1C(N)=O)c1ccccc1C(F)(F)F`: the GI50 was < 0.012 µM and 0.00556 µM; the TGI was 12.7 µM and > 10 µM.

A further assay has as its system MDA-MB-435. The assay can be described thus: NCI-60 cell line screen, 48 h.
As to `CCOC1Oc2ccccc2C(=O)/C1=C/Nc1ccc(C(C)=O)cc1` (stereo unspecified), the GI50 was 24.3 µM and the TGI is 61.9 µM.
Take `COC1/C=C/OC2(C)Oc3c(C)c(O)c4c(O)c(c(/C=N/Nc5ccc([N+](=O)[O-])cc5[N+](=O)[O-])c(O)c4c3C2=O)NC(=O)C(C)=C/C=C/C(C)C(O)C(C)C(O)C(C)C(OC(C)=O)C1C` (stereo unspecified): the GI50 was 1.28 µM and the TGI is 3.72 µM.
As for `C=CCO[C@H]1CO[C@H]2[C@@H]1OC[C@@H]2Oc1ccc(Nc2ccnc(Nc3ccc(O[C@H]4CO[C@H]5[C@@H]4OC[C@@H]5OCC=C)c(Cl)c3)n2)cc1Cl`, the GI50 was 1.67 µM and the TGI is 3.06 µM.
For `CCN(CC)N=Nc1c(C(N)=O)n[nH]c1C`, the TGI was above 100 µM.
As for `COc1cc2c(cc1OCCCCN1CCN(CC(=O)Nc3ccc(Cl)cc3C(=O)c3ccccc3Cl)CC1)N=CC1CCCN1C2=O` (stereo unspecified), the GI50 is 0.188 µM and the TGI amounted to 0.367 µM.

The subject of the next assay is NCI-H23 lung. Put plainly: NCI-60 cell line screen, 48 h.
Consider `CCOC1Oc2ccccc2C(=O)/C1=C/Nc1ccc(C(C)=O)cc1` (stereo unspecified), for which the GI50 was 13.9 µM and the TGI came to 36.2 µM.
The like results for `COC1/C=C/OC2(C)Oc3c(C)c(O)c4c(O)c(c(/C=N/Nc5ccc([N+](=O)[O-])cc5[N+](=O)[O-])c(O)c4c3C2=O)NC(=O)C(C)=C/C=C/C(C)C(O)C(C)C(O)C(C)C(OC(C)=O)C1C` (stereo unspecified) were, in that order, 1.7 µM and 7.02 µM.
In turn, `Cc1cc(NS(=O)(=O)c2ccc(Nc3c4ccccc4nc4c(C(=O)N5CCN(CCOS(C)(=O)=O)CC5)cccc34)cc2)no1` returned a TGI above 100 µM.
With `C=CCO[C@H]1CO[C@H]2[C@@H]1OC[C@@H]2Oc1ccc(Nc2ccnc(Nc3ccc(O[C@H]4CO[C@H]5[C@@H]4OC[C@@H]5OCC=C)c(Cl)c3)n2)cc1Cl`, the GI50 was 1.79 µM and the TGI was determined as 3.71 µM.
The compound `O=C(O)CCC(NC(=O)c1ccc(Nc2nc3ccccc3nc2-c2cccs2)cc1)C(=O)O` (stereo unspecified) came in with a TGI above 100 µM.
On to `COc1ccc2c(c1)sc1nc(-c3ccccc3)c(-c3cccc4ccccc34)n12`, for which the GI50 was 1.21 µM and the TGI is above 100 µM.
The compound `C[N+](C)(C)CC(=O)N/N=C(/CC(=O)CC(C1=C(O)c2ccccc2OC1)c1ccccc1)C(=O)Nc1cccc(Cl)c1` (stereo unspecified) showed a TGI above 100 µM.
`CCN(CC)N=Nc1c(C(N)=O)n[nH]c1C` displayed a TGI above 100 µM.
In the case of `COc1cc2ccnc([C@@H](OC(=O)c3ccccc3)c3ccc(OC)c(OC)c3OC)c2cc1OC`, the TGI is above 100 µM.
Compound `O=C(O)CCNCCCNCCC(=O)O` registered a TGI above 100 µM.
Take `CC(=O)[CH-]C(=O)c1ccccc1.CC(=O)[CH-]C(=O)c1ccccc1.CN(C)c1ccc([O-])cc1.CN(C)c1ccc([O-])cc1.Cl.[Ti+4]`: the GI50 was 21.1 µM and the TGI is above 31.6 µM.
For the compound `NC1=NCCC1(c1ccccc1)c1ccccn1` (stereo unspecified), the TGI is above 100 µM.
In the case of `CCCCCCCCCCCC(=O)OCCOCCOCCOCCOCCOCc1ccccc1`, the TGI is above 100 µM.
`CCCCCCCCCCCCCC(=O)OC(/C=C/C(C)C)C(O)C(O)C(OC)C(=O)NC1CCCCN(C)C1=O` (stereo unspecified): the TGI is 6.48 µM and > 49 µM.
On the same count and under the same terms, in the case of `CCOC(=O)CCC1(C(=O)OCC)CCCCC1=O` (stereo unspecified) it was above 100 µM; in that of `CCCC1C(=O)CCc2c(OC)ccc(OC)c21` (stereo unspecified), above 100 µM; in that of `NC(=O)NO.O.O.O.O.O.O.O.O.O.O.O.[Ge].[Ge].[Ge].[Ge].[Ge].[O]=[Ge].[O]=[Ge].[O]=[Ge].[O]=[Ge].[O]=[Ge][OH]`, above 100 µM.

The record behind these values is PubChem BioAssay (NCI).
